Legend:
Test in all cases: relative viability (nuclei count vs DMSO), 5 days (fraction); higher = more cells survive
[1] = system: 201T
Method in brief: (§1)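 Relative viability equals treated-well nuclei counts divided by vehicle-well nuclei counts. Counts came from 4× images of lung cancer cell lines grown in 1536-well plates for 5 days after pin-tool dosing on the day after seeding. Dosing used one drug alone or a fixed anchor-drug dose plus five library-drug doses (not always all listed) in √10 steps, and values are medians of duplicate plates.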

[2] = system: BEN
Method in brief: as §1

[3] = system: CAL-12T
Method in brief: as §1

[4] = system: HCC-827
Method in brief: as §1

[5] = system: LCLC-103H
Method in brief: as §1

[6] = system: LCLC-97TM1
Method in brief: as §1

[7] = system: LXF-289
Method in brief: as §1

[8] = system: NCI-H1395
Method in brief: as §1

[9] = system: NCI-H1437
Method in brief: as §1

[10] = system: NCI-H1650
Method in brief: as §1

[11] = system: NCI-H1792
Method in brief: as §1

[12] = system: NCI-H1793
Method in brief: as §1

[13] = system: NCI-H1944
Method in brief: as §1

[14] = system: NCI-H2087
Method in brief: as §1

[15] = system: NCI-H2228
Method in brief: as §1

[16] = system: NCI-H2405
Method in brief: as §1

[17] = system: NCI-H3122
Method in brief: as §1

[18] = system: NCI-H322M
Method in brief: as §1

[19] = system: NCI-H647
Method in brief: as §1

[20] = system: NCI-H727
Method in brief: as §1

[21] = system: RERF-LC-KJ
Method in brief: as §1

[22] = system: SK-LU-1
Method in brief: as §1

For `CC(=O)O[C@@]12CO[C@@H]1C[C@H](O)[C@@]1(C)C(=O)[C@H](O)C3=C(C)[C@@H](OC(=O)[C@H](O)[C@@H](NC(=O)OC(C)(C)C)c4ccccc4)C[C@@](O)([C@@H](OC(=O)c4ccccc4)[C@H]21)C3(C)C` [Docetaxel] + COc1cccc2cc(-c3nc([C@H]4CC[C@H](C(=O)O)CC4)n4ncnc(N)c34)[nH]c12 [OSI-027] (partner 0.5 µM), which relative viability ([1]; first compound 0.0002 µM) is on record?
Its relative viability is 0.528.

What about the relative viability ([1]; first compound 0.000632 µM) of the same molecule?
Its relative viability is 0.442.

What about the relative viability ([1]; first compound 0.002 µM) of the same molecule?
Its relative viability is 0.258.

What about the relative viability ([1]; first compound 0.006325 µM) of the same molecule?
Its relative viability is 0.132.

What about the relative viability ([1]; first compound 0.02 µM) of the same molecule?
Its relative viability is 0.0963.

What about the relative viability ([2]; first compound 0.0002 µM) of the same molecule?
Its relative viability is 0.283.

What about the relative viability ([2]; first compound 0.000632 µM) of the same molecule?
Its relative viability is 0.285.

And the relative viability ([2]; first compound 0.002 µM)?
Its relative viability is 0.241.

What about the relative viability ([2]; first compound 0.006325 µM) of the same molecule?
Its relative viability is 0.181.

What about the relative viability ([2]; first compound 0.02 µM) of the same molecule?
Its relative viability is 0.165.

What about the relative viability ([3]; first compound 0.0002 µM) of the same molecule?
Its relative viability is 0.44.

And the relative viability ([3]; first compound 0.000632 µM)?
Its relative viability is 0.272.

What about the relative viability ([3]; first compound 0.002 µM) of the same molecule?
The relative viability was 0.186.

What about the relative viability ([3]; first compound 0.02 µM) of the same molecule?
The relative viability was 0.111.

What about the relative viability ([4]; first compound 0.0002 µM) of the same molecule?
Its relative viability is 0.783.

What about the relative viability ([4]; first compound 0.000632 µM) of the same molecule?
Its relative viability is 0.848.

And the relative viability ([4]; first compound 0.002 µM)?
The relative viability was 0.52.

And the relative viability ([4]; first compound 0.006325 µM)?
The relative viability was 0.226.

What about the relative viability ([4]; first compound 0.02 µM) of the same molecule?
The relative viability was 0.169.

And the relative viability ([5]; first compound 0.0002 µM)?
The relative viability was 0.394.

And the relative viability ([5]; first compound 0.000632 µM)?
Its relative viability is 0.528.

And the relative viability ([5]; first compound 0.002 µM)?
Its relative viability is 0.343.

And the relative viability ([5]; first compound 0.006325 µM)?
Its relative viability is 0.414.

And the relative viability ([5]; first compound 0.02 µM)?
The relative viability was 0.264.

And the relative viability ([6]; first compound 0.0002 µM)?
The relative viability was 0.696.

What about the relative viability ([6]; first compound 0.000632 µM) of the same molecule?
The relative viability was 0.603.

And the relative viability ([6]; first compound 0.002 µM)?
Its relative viability is 0.352.

What about the relative viability ([6]; first compound 0.006325 µM) of the same molecule?
Its relative viability is 0.182.

What about the relative viability ([6]; first compound 0.02 µM) of the same molecule?
The relative viability was 0.118.

And the relative viability ([7]; first compound 0.0002 µM)?
The relative viability was 0.819.

And the relative viability ([7]; first compound 0.000632 µM)?
Its relative viability is 0.652.

And the relative viability ([7]; first compound 0.006325 µM)?
Its relative viability is 0.117.

And the relative viability ([7]; first compound 0.02 µM)?
Its relative viability is 0.067.

And the relative viability ([8]; first compound 0.0002 µM)?
The relative viability was 0.609.

What about the relative viability ([8]; first compound 0.000632 µM) of the same molecule?
The relative viability was 0.657.

And the relative viability ([8]; first compound 0.002 µM)?
The relative viability was 0.538.

What about the relative viability ([8]; first compound 0.006325 µM) of the same molecule?
Its relative viability is 0.373.

And the relative viability ([8]; first compound 0.02 µM)?
The relative viability was 0.272.

And the relative viability ([9]; first compound 0.0002 µM)?
The relative viability was 0.767.

What about the relative viability ([9]; first compound 0.000632 µM) of the same molecule?
The relative viability was 0.861.

And the relative viability ([9]; first compound 0.002 µM)?
The relative viability was 0.311.

And the relative viability ([9]; first compound 0.006325 µM)?
Its relative viability is 0.162.

And the relative viability ([9]; first compound 0.02 µM)?
Its relative viability is 0.114.

What about the relative viability ([10]; first compound 0.0002 µM) of the same molecule?
Its relative viability is 0.473.

And the relative viability ([10]; first compound 0.000632 µM)?
Its relative viability is 0.301.

What about the relative viability ([10]; first compound 0.006325 µM) of the same molecule?
The relative viability was 0.188.

And the relative viability ([10]; first compound 0.02 µM)?
Its relative viability is 0.115.

What about the relative viability ([11]; first compound 0.0002 µM) of the same molecule?
The relative viability was 0.673.

And the relative viability ([11]; first compound 0.000632 µM)?
Its relative viability is 0.699.

And the relative viability ([11]; first compound 0.002 µM)?
Its relative viability is 0.545.

And the relative viability ([11]; first compound 0.006325 µM)?
Its relative viability is 0.409.

And the relative viability ([11]; first compound 0.02 µM)?
Its relative viability is 0.186.

What about the relative viability ([12]; first compound 0.0002 µM) of the same molecule?
The relative viability was 0.282.

What about the relative viability ([12]; first compound 0.000632 µM) of the same molecule?
The relative viability was 0.275.

What about the relative viability ([12]; first compound 0.002 µM) of the same molecule?
Its relative viability is 0.227.

What about the relative viability ([12]; first compound 0.006325 µM) of the same molecule?
Its relative viability is 0.181.

And the relative viability ([12]; first compound 0.02 µM)?
The relative viability was 0.15.

What about the relative viability ([13]; first compound 0.0002 µM) of the same molecule?
The relative viability was 0.38.

What about the relative viability ([13]; first compound 0.000632 µM) of the same molecule?
Its relative viability is 0.423.

And the relative viability ([13]; first compound 0.002 µM)?
Its relative viability is 0.26.

What about the relative viability ([13]; first compound 0.02 µM) of the same molecule?
Its relative viability is 0.139.

And the relative viability ([14]; first compound 0.0002 µM)?
The relative viability was 0.464.

And the relative viability ([14]; first compound 0.000632 µM)?
The relative viability was 0.359.

And the relative viability ([14]; first compound 0.002 µM)?
Its relative viability is 0.142.

And the relative viability ([14]; first compound 0.006325 µM)?
The relative viability was 0.113.

What about the relative viability ([14]; first compound 0.02 µM) of the same molecule?
Its relative viability is 0.111.

And the relative viability ([15]; first compound 0.0002 µM)?
The relative viability was 0.456.

What about the relative viability ([15]; first compound 0.000632 µM) of the same molecule?
The relative viability was 0.147.

And the relative viability ([15]; first compound 0.002 µM)?
The relative viability was 0.159.

What about the relative viability ([15]; first compound 0.006325 µM) of the same molecule?
Its relative viability is 0.161.

And the relative viability ([15]; first compound 0.02 µM)?
Its relative viability is 0.112.

What about the relative viability ([16]; first compound 0.0002 µM) of the same molecule?
Its relative viability is 0.666.

And the relative viability ([16]; first compound 0.000632 µM)?
Its relative viability is 0.628.

What about the relative viability ([16]; first compound 0.002 µM) of the same molecule?
Its relative viability is 0.422.

And the relative viability ([16]; first compound 0.006325 µM)?
Its relative viability is 0.333.

And the relative viability ([16]; first compound 0.02 µM)?
The relative viability was 0.255.

And the relative viability ([17]; first compound 0.0002 µM)?
The relative viability was 0.932.

And the relative viability ([17]; first compound 0.000632 µM)?
The relative viability was 0.861.

And the relative viability ([17]; first compound 0.002 µM)?
The relative viability was 0.227.

What about the relative viability ([17]; first compound 0.006325 µM) of the same molecule?
The relative viability was 0.168.

And the relative viability ([17]; first compound 0.02 µM)?
Its relative viability is 0.118.

And the relative viability ([18]; first compound 0.0002 µM)?
Its relative viability is 0.531.

And the relative viability ([18]; first compound 0.000632 µM)?
Its relative viability is 0.532.

What about the relative viability ([18]; first compound 0.002 µM) of the same molecule?
Its relative viability is 0.471.

And the relative viability ([18]; first compound 0.006325 µM)?
Its relative viability is 0.383.

What about the relative viability ([18]; first compound 0.02 µM) of the same molecule?
Its relative viability is 0.279.

What about the relative viability ([19]; first compound 0.0002 µM) of the same molecule?
The relative viability was 0.524.

And the relative viability ([19]; first compound 0.000632 µM)?
Its relative viability is 0.432.

And the relative viability ([19]; first compound 0.002 µM)?
The relative viability was 0.229.

What about the relative viability ([19]; first compound 0.006325 µM) of the same molecule?
The relative viability was 0.0929.

What about the relative viability ([19]; first compound 0.02 µM) of the same molecule?
Its relative viability is 0.0717.

And the relative viability ([20]; first compound 0.0002 µM)?
Its relative viability is 0.804.

And the relative viability ([20]; first compound 0.000632 µM)?
The relative viability was 0.615.

And the relative viability ([20]; first compound 0.002 µM)?
Its relative viability is 0.415.

What about the relative viability ([20]; first compound 0.006325 µM) of the same molecule?
Its relative viability is 0.544.

What about the relative viability ([20]; first compound 0.02 µM) of the same molecule?
Its relative viability is 0.361.

And the relative viability ([21]; first compound 0.0002 µM)?
The relative viability was 0.564.

What about the relative viability ([21]; first compound 0.000632 µM) of the same molecule?
Its relative viability is 0.543.

What about the relative viability ([21]; first compound 0.002 µM) of the same molecule?
The relative viability was 0.297.

What about the relative viability ([21]; first compound 0.006325 µM) of the same molecule?
Its relative viability is 0.248.

And the relative viability ([21]; first compound 0.02 µM)?
Its relative viability is 0.161.

And the relative viability ([22]; first compound 0.0002 µM)?
Its relative viability is 0.353.

And the relative viability ([22]; first compound 0.000632 µM)?
Its relative viability is 0.26.

And the relative viability ([22]; first compound 0.002 µM)?
Its relative viability is 0.228.

What about the relative viability ([22]; first compound 0.006325 µM) of the same molecule?
The relative viability was 0.197.

And the relative viability ([22]; first compound 0.02 µM)?
Its relative viability is 0.144.
